Where two headings read alike, the source gives them in different places.
Settings: saturated solution

Measured: Appearance

Cc1cc2c(s1)Nc1ccccc1N=C2N1CCN(C)CC1 [olanzapine, 2-methyl-4-(4-methyl-1-piperazinyl)-10H-thieno[2,3-b][1,5]benzodiazepine]
Clear amber solution: 20% Dimethylacetamide/80% PEG 200 | 40% Dimethylacetamide/60% PEG 200 | 100% PEG 200

— patent publication US20250352554A1 (Neurelis, Inc., priority 2024, published 2025)
